Data set [1] deals with T1, GAL4 DBD-CfEcR(DEF)/VP16AD-MmRXRE (Choristoneura fumiferana, UniProt O77240).
T1 construct: The wild-type D, E, and F domains from spruce budworm Choristoneura fumiferana EcR (“CfEcR-DEF”)
As to the kind of experiment: 13B3 assay: luciferase reporter gene induction in stable CHO clone 13B3. The settings on record: 48 h, read-out: Fold Induction Average, 13B3 assay. Type of data set: cell-based. In a few lines: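 Stable CHO clone 13B3 co-expressing GAL4 DBD-CfEcR(DEF) and VP16AD-MmRXRE with a GAL4 RE-luciferase reporter; ligands from DMSO stocks diluted 300-fold. Luciferase read by luminescence 48 h after treatment, duplicate wells averaged. Fold induction = RLU treated/RLU DMSO; EC50 from three-parameter logistic fit.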
(A reporter such as luciferase makes a cellular process visible.)

The next data set concerns the target T2, Bombyx mori EcR (VBE) (Bombyx mori, UniProt P49881).
T2 construct: expressed in transfected cells; host or cells: Human HEK-293 cells, retrovirally infected, clone Z3
T2 sequence (P49881 86-606 limits assumed): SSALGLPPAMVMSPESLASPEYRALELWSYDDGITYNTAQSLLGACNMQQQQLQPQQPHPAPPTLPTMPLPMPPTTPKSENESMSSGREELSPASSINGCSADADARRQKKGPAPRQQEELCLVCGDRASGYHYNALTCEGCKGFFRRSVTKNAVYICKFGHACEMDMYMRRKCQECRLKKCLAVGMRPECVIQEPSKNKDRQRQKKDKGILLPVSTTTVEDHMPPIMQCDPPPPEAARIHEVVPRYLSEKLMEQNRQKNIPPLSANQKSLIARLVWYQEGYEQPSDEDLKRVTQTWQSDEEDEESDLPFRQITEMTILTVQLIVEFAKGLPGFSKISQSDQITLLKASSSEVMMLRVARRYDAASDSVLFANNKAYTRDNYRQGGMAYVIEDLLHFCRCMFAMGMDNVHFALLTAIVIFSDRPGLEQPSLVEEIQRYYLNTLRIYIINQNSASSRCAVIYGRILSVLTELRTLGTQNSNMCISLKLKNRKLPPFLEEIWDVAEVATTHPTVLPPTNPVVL
T2 sequence (P19793 1-462 partner): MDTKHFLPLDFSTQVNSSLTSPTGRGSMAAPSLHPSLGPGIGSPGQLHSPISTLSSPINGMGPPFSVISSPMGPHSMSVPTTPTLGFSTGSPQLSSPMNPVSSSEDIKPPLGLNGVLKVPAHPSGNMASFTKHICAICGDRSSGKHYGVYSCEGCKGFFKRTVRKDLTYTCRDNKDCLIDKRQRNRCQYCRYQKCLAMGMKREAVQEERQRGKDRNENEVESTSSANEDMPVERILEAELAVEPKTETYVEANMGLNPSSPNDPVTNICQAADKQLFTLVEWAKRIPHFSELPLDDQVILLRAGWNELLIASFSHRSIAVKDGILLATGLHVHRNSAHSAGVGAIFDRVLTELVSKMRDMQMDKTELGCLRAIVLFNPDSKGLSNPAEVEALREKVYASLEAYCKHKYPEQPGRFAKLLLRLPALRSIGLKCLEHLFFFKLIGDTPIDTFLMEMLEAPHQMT
As to the kind of experiment: Z3 assay: β-galactosidase reporter gene induction in HEK-293 clone Z3 (CVBE / 6XEcRE LacZ). Type of data set: cell-based. The settings on record: HEK293, 48 h, read-out: Fold Induction Average, Z3 assay.

Data set [2] concerns the target T3, GAL4 DBD (1-147)-CfEcR(DEF)/VP16AD-βRXREF-LmUSPEF (Choristoneura fumiferana, UniProt O77240).
T3 construct: The wild-type D, E, and F domains from spruce budworm Choristoneura fumiferana EcR (“CfEcR-DEF”)
As to the kind of experiment: cell-based. The settings on record: for Rel Max FI, 27-63 assay: maximum fold induction relative to that of GS-E ligand. An outline of the steps:
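CHO clone stably carrying the GAL4-DBD–spruce budworm EcR(DEF) and VP16–RXR/USP chimeric receptor with a GAL4-responsive luciferase reporter; ligand added from DMSO stock diluted 300-fold.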

Another data set has as its system Plodia. As to the kind of experiment: Plodia EC50. In kind it is cell-based.
A further data set concerns Kc. As to the kind of experiment: Kc EC50. Type of data set: cell-based.
Data set [3] has as its system MTA (two-spotted spider mite). As to the kind of experiment: Insect toxicity contact bioassay, MTA. In kind it is in vivo. The settings on record: in vivo. How it is done: (§1) The compound to be evaluated was dissolved in an appropriate solvent, usually a mix of acetone, methanol, and water. Test solutions were made by serial dilution of a stock test solution with acetone, methanol, and water. Initial evaluations were made at one or more concentrations on one or more of the following insects:
(§2) Contact bioassays (green peach aphid, two-spotted spider mite, white fly) were conducted by applying a solution of the test compound to the inside surface of a Petri dish. The solution was allowed to air-dry, then each dish was infested and the larvae from each treatment were transferred to a bioassay tray. The trays were held for one to seven days, and the mortality rating was determined for each treatment.

The next data set relates to Cabbage Looper. As to the kind of experiment: Insect toxicity feeding bioassay, CL. In kind it is in vivo. The settings on record: in vivo. As to the method: as §1
(§3) Feeding bioassays were conducted in bioassay trays containing insect diet. Treatments were made by applying 50 μL of test solution to the surface of the diet in each of 5 wells. After the test solution dried, each well was infested with a single neonate larva. The trays were held for six days and then the mortality rating was determined for each treatment.

The test system of a further data set is WFN (white fly). As to the kind of experiment: Insect toxicity contact bioassay, WFN. The settings on record: in vivo. Type of data set: in vivo. As to the method:
as §1, §2

Data set [4] addresses CfEcR (CDEF)/CfUSP, GST fusion protein (Choristoneura fumiferana, UniProt O77240). As to the kind of experiment: CfEcR (CDEF)/CfUSP GST fusion protein assay. Type of data set: binding.
A further data set concerns Tobacco Budworm. As to the kind of experiment: Insect toxicity bioassay, TBW. In kind it is in vivo. The settings on record: in vivo. How it is done: as §1, §3
Some of the tobacco budworm tests were conducted as follows. A test solution containing 600 ppm was made by dissolving a compound of the invention in a 1:1 acetone:methanol solution, then adding water to give a 5:5:90 acetone:methanol:water solution, and finally a surfactant was added at an equivalent of 7.37 g of surfactant per 100 L of test solution (1 ounce of surfactant per 100 gallons of test solution). Appropriate dilutions were prepared in water from the 600 ppm solution. A detached cotton leaf, Gossypium hirsutum was placed on moistened filter paper in a Petri dish (100×20 mms). The leaf was sprayed with the test solution using a rotating turntable sprayer and allowed to dry. The dish was infested with 10 first instar larvae of the tobacco budworm and covered with the lid. If the larvae were alive two days after treatment, fresh untreated cotton leaves were added. All treatments were maintained at 23.9-26.7° C. (75-80° F.) under fluorescent light in a well-ventilated room. Percent mortality was determined at four days after treatment.

The test system of the next data set is Beet Armyworm. As to the kind of experiment: Insect toxicity feeding bioassay, BAW. In kind it is in vivo. The settings on record: in vivo. As to the method: as §1, §3

CfEcR (CDEF)/CfUSP, GST fusion protein, sequence (O77240 entry or part of it): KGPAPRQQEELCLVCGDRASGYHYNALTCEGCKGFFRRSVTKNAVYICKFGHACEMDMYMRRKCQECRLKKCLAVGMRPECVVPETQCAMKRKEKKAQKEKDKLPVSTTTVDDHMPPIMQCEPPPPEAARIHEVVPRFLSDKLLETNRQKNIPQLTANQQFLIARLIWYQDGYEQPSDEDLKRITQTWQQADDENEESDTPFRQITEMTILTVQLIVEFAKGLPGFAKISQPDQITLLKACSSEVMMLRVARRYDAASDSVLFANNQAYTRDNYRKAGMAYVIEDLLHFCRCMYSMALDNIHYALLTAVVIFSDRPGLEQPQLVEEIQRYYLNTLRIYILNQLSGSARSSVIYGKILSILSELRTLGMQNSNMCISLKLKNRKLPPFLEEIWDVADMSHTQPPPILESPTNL
CfEcR (CDEF)/CfUSP, GST fusion protein, sequence (O76202 whole entry, further chain, the tested form may be a part): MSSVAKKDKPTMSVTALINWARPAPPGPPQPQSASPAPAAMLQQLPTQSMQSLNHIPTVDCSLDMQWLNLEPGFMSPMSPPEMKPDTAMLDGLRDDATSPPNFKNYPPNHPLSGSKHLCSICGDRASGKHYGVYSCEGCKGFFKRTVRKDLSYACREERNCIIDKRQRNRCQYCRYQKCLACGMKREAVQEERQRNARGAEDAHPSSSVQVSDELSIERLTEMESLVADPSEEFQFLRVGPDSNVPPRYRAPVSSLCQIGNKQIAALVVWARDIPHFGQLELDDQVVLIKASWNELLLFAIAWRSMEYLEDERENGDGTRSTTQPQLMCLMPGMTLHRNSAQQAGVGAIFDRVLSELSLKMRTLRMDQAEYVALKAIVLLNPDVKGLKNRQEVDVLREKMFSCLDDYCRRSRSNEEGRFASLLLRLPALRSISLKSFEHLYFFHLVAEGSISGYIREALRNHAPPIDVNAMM

For the compound `COc1cccc(C(=O)NN2C(c3ccccc3)=NOC2(C)C)c1C` [RG-120042, N-(5,5-dimethyl-3-phenyl-[1,2,4]oxadiazol-4-yl)-3-methoxy-2-methyl-benzamide], the melting point – broadly, the temperature, or range, at which the solid turns liquid – is 141 to 142 °C. Besides, the fold induction at 33.3 µM in [1] was determined as 3.3. Further, the fold induction at 33 µM at Bombyx mori EcR (VBE) stood at 19.3. Moreover, in data set [2], the EC50 (commonly the concentration at which the effect is half-maximal) is above 33 µM and the “Rel Max FI, 27-63 assay” value amounted to 0. This compound showed an EC50 in the data set on Plodia of 0.481 µM. The same compound displayed an EC50 in the data set on Kc of 29 µM.
Take `CCc1ccc(C(=O)NN2C(c3cc(C)cc(C)c3)=NOC2(C)CC)cc1` (stereo not drawn) [RG-120128]: the “Insect Toxicity LC50, MTA” value in data set [3] is on record as above 150 ppm. For the same compound, the “Insect Toxicity LC50, CL” value in the data set with Cabbage Looper amounted to 17 ppm. For the same compound, the fold induction at 33.3 µM in data set [1] turned out to be 129; in [2] (48 h, read-out: Fold Induction Average, 27-63 assay), 338. Moreover, the fold induction at 33 µM on Bombyx mori EcR (VBE) stood at 403. Moreover, in the data set on WFN (white fly), the “Insect Toxicity LC50, WFN” value is above 150 ppm. The values for the EC50 in [4] and in [2] were 0.0285 µM and around 20 µM, respectively. Also, the “Rel Max FI, 27-63 assay” value in data set [2] came out at 0.18. For the same compound, the “Insect Toxicity LC50, TBW” value in the data set on Tobacco Budworm is recorded as above 150 ppm. Moreover, the “Insect Toxicity LC50, BAW” value with Beet Armyworm amounted to 47 ppm.

Source of the values: patent US8669072B2, “Oxadiazoline ligands for modulating the expression of exogenous genes via an ecdysone receptor complex” (Intrexon Corporation, priority 2003, dated 2014).
